According to ChEMBL document CHEMBL4507315 (2021):

Tests used:
[1] = molecular target: Platelet-derived growth factor receptor alpha (Homo sapiens) (UniProt P16234); settings: Compound concentration 100.0 nM
[2] = molecular target: Serine/threonine-protein kinase PAK 5 (Homo sapiens) (UniProt Q9P286); settings: Compound concentration 100.0 nM
[3] = molecular target: Serine/threonine-protein kinase Sgk2 (Homo sapiens) (UniProt Q9HBY8); settings: Compound concentration 100.0 nM
[4] = system: Fibroblast growth factor receptor 3 (Homo sapiens), P22607 [G697C]; settings: Compound concentration 100.0 nM
[5] = molecular target: Microtubule-associated serine/threonine-protein kinase 1 (Homo sapiens) (UniProt Q9Y2H9); settings: Compound concentration 100.0 nM
[6] = molecular target: Serine/threonine-protein kinase STK11 (Homo sapiens) (UniProt Q15831); settings: Compound concentration 100.0 nM
[7] = molecular target: Serine/threonine-protein kinase WNK1 (Homo sapiens) (UniProt Q9H4A3); settings: Compound concentration 100.0 nM
[8] = molecular target: Serine/threonine-protein kinase 35 (Homo sapiens) (UniProt Q8TDR2); settings: Compound concentration 100.0 nM
[9] = molecular target: Myosin-IIIb (Homo sapiens) (UniProt Q8WXR4); settings: Compound concentration 100.0 nM
[10] = molecular target: Casein kinase I isoform alpha (Homo sapiens) (UniProt P48729); settings: Compound concentration 100.0 nM
[11] = molecular target: Receptor-interacting serine/threonine-protein kinase 2 (Homo sapiens) (UniProt O43353); settings: Compound concentration 100.0 nM
[12] = molecular target: Cyclin-G-associated kinase (Homo sapiens) (UniProt O14976); settings: Compound concentration 100.0 nM
[13] = molecular target: Serine/threonine-protein kinase MRCK gamma (Homo sapiens) (UniProt Q6DT37); settings: Compound concentration 100.0 nM
[14] = molecular target: 5-hydroxytryptamine receptor 6 (Homo sapiens) (UniProt P50406); settings: Compound concentration 10.0 uM
[15] = system: Phosphatidylinositol 4,5-bisphosphate 3-kinase catalytic subunit alpha isoform (Homo sapiens), P42336 [E545K]; settings: Compound concentration 100.0 nM
[16] = molecular target: Tyrosine-protein kinase Lck (Homo sapiens) (UniProt P06239); settings: Compound concentration 100.0 nM
[17] = molecular target: Ribosomal protein S6 kinase alpha-6 (Homo sapiens) (UniProt Q9UK32); settings: Compound concentration 100.0 nM
[18] = molecular target: Phosphatidylinositol 4-phosphate 5-kinase type-1 gamma (Homo sapiens) (UniProt O60331); settings: Compound concentration 100.0 nM
[19] = molecular target: Ribosomal protein S6 kinase alpha-2 (Homo sapiens) (UniProt Q15349); settings: Compound concentration 100.0 nM
[20] = molecular target: Tyrosine-protein kinase BTK (Homo sapiens) (UniProt Q06187); settings: Compound concentration 100.0 nM
[21] = system: Epidermal growth factor receptor (Homo sapiens), P00533 [L858R,T790M]; settings: Compound concentration 100.0 nM
[22] = molecular target: Calcium/calmodulin-dependent protein kinase type II subunit gamma (Homo sapiens) (UniProt Q13555); settings: Compound concentration 100.0 nM
[23] = molecular target: Casein kinase I isoform gamma-2 (Homo sapiens) (UniProt P78368); settings: Compound concentration 100.0 nM
[24] = molecular target: Serine/threonine-protein kinase MRCK beta (Homo sapiens) (UniProt Q9Y5S2); settings: Compound concentration 100.0 nM
[25] = molecular target: Inhibitor of nuclear factor kappa-B kinase subunit epsilon (Homo sapiens) (UniProt Q14164); settings: Compound concentration 100.0 nM
[26] = molecular target: Cyclin-dependent kinase 7 (Homo sapiens) (UniProt P50613); settings: Compound concentration 100.0 nM
[27] = molecular target: Insulin-like growth factor 1 receptor (Homo sapiens) (UniProt P08069); settings: Compound concentration 100.0 nM
[28] = molecular target: Calcium/calmodulin-dependent protein kinase type II subunit delta (Homo sapiens) (UniProt Q13557); settings: Compound concentration 100.0 nM
[29] = molecular target: Aurora kinase C (Homo sapiens) (UniProt Q9UQB9); settings: Compound concentration 100.0 nM
[30] = molecular target: Mast/stem cell growth factor receptor Kit (Homo sapiens) (UniProt P10721); settings: Compound concentration 100.0 nM
[31] = molecular target: Vascular endothelial growth factor receptor 1 (Homo sapiens) (UniProt P17948); settings: Compound concentration 100.0 nM
[32] = molecular target: Epidermal growth factor receptor (Homo sapiens) (UniProt P00533); settings: Compound concentration 100.0 nM
[33] = molecular target: Ephrin type-B receptor 2 (Homo sapiens) (UniProt P29323); settings: Compound concentration 100.0 nM
[34] = system: Mast/stem cell growth factor receptor Kit (Homo sapiens), P10721 [D816V]; settings: Compound concentration 100.0 nM
[35] = molecular target: Tyrosine-protein kinase JAK1 (Homo sapiens) (UniProt P23458); settings: Compound concentration 100.0 nM
[36] = molecular target: Mitogen-activated protein kinase kinase kinase 3 (Homo sapiens) (UniProt Q99759); settings: Compound concentration 100.0 nM
[37] = molecular target: Calcium/calmodulin-dependent protein kinase kinase 1 (Homo sapiens) (UniProt Q8N5S9); settings: Compound concentration 100.0 nM
[38] = molecular target: Dual specificity mitogen-activated protein kinase kinase 6 (Homo sapiens) (UniProt P52564); settings: Compound concentration 100.0 nM
[39] = molecular target: Serine/threonine-protein kinase ULK1 (Homo sapiens) (UniProt O75385); settings: Compound concentration 100.0 nM
[40] = molecular target: G protein-coupled receptor kinase 3 (Homo sapiens) (UniProt P35626); settings: Compound concentration 100.0 nM
[41] = molecular target: Insulin receptor-related protein (Homo sapiens) (UniProt P14616); settings: Compound concentration 100.0 nM
[42] = molecular target: Serine/threonine-protein kinase PAK 1 (Homo sapiens) (UniProt Q13153); settings: Compound concentration 100.0 nM
[43] = molecular target: Tyrosine-protein kinase ABL1 (Homo sapiens) (UniProt P00519); settings: Compound concentration 100.0 nM
[44] = molecular target: Fibroblast growth factor receptor 4 (Homo sapiens) (UniProt P22455); settings: Compound concentration 100.0 nM
[45] = system: ALK tyrosine kinase receptor (Homo sapiens), Q9UM73 [L1196M]; settings: Compound concentration 100.0 nM

Sequence of Cyclin-dependent kinase 7 (Homo sapiens) (P50613 whole entry): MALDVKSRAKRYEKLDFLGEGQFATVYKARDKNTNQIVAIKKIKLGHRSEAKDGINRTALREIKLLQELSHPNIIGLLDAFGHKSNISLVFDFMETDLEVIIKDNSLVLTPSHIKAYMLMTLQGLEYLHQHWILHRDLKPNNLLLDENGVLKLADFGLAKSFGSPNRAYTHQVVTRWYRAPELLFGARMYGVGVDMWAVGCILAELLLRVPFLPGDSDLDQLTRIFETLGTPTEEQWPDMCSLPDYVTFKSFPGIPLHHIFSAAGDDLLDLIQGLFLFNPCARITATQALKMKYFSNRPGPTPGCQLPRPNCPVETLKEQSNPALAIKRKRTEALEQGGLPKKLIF
Sequence of Insulin-like growth factor 1 receptor (Homo sapiens) (P08069 31-736 limits assumed): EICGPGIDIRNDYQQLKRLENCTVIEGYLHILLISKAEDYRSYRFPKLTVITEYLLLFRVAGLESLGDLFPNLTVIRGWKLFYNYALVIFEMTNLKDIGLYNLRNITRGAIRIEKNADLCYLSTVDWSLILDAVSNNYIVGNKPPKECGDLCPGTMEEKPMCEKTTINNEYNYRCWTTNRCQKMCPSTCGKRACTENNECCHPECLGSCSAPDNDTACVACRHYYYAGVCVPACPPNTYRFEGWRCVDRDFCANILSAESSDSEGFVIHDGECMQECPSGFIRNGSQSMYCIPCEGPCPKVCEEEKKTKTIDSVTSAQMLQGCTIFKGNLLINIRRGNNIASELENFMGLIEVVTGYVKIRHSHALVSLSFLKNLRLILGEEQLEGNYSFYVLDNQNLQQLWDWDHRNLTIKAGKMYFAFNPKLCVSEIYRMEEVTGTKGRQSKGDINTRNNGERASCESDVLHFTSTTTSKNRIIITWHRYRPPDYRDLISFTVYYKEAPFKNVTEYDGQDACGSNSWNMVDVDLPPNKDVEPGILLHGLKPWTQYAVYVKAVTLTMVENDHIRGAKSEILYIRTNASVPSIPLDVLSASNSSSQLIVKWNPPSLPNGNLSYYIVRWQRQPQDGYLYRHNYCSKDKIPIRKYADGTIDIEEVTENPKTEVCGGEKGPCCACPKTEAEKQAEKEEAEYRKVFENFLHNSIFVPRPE
Sequence of Insulin-like growth factor 1 receptor (Homo sapiens) (P08069 741-1367 limits assumed): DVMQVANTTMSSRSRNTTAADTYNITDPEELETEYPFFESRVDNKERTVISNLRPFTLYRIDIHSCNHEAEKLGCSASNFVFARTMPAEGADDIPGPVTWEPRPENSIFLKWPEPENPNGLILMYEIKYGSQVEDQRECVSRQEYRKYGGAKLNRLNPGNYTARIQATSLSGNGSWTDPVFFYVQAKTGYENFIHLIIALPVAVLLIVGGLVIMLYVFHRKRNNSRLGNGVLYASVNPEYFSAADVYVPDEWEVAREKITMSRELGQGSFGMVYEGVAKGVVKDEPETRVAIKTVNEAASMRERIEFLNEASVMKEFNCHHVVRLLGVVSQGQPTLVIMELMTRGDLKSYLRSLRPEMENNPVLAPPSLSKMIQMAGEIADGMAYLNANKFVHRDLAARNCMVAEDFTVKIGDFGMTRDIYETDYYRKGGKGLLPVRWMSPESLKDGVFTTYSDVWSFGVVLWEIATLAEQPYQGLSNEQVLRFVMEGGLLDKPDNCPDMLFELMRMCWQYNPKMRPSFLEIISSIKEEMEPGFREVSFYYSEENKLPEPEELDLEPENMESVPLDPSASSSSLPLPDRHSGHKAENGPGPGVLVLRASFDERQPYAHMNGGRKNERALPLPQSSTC
Sequence of Serine/threonine-protein kinase MRCK gamma (Homo sapiens) (Q6DT37 whole entry): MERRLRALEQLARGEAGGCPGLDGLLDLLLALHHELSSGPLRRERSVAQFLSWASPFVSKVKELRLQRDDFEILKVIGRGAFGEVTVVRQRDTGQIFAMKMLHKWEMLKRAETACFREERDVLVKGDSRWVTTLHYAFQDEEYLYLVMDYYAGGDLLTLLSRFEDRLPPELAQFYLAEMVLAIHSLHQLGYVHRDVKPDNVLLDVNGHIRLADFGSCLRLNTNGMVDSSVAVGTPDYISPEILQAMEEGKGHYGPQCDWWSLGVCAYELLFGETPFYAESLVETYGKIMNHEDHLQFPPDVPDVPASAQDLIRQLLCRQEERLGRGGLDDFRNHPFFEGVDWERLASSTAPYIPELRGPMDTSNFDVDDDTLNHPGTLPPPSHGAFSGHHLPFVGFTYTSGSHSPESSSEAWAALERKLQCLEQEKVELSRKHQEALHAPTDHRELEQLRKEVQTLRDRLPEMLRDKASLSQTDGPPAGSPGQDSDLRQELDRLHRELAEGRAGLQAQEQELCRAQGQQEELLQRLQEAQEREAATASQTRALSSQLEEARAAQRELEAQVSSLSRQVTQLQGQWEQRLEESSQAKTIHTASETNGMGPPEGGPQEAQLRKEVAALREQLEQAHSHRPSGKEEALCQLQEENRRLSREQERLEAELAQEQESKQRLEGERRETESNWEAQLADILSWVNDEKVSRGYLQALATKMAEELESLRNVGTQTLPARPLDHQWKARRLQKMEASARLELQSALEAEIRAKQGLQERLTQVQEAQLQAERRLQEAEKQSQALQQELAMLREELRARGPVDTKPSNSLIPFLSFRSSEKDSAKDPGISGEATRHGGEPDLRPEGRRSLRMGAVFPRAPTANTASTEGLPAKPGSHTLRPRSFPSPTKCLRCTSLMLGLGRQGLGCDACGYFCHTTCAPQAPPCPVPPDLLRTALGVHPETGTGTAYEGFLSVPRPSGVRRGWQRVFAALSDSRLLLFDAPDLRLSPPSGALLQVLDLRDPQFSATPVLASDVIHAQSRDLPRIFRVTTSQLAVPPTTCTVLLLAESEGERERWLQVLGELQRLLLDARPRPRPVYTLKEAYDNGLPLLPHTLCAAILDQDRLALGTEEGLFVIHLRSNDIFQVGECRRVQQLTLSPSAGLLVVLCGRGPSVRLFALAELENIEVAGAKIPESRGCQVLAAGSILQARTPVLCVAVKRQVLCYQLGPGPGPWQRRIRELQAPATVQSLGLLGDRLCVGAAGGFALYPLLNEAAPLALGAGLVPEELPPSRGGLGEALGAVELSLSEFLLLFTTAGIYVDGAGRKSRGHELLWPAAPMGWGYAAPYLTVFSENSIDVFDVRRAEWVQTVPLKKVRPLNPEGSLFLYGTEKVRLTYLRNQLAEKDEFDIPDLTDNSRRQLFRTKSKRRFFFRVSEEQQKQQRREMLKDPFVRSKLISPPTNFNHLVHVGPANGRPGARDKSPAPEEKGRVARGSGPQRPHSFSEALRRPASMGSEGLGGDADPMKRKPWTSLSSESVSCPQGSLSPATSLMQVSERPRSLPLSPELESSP
Sequence of Mast/stem cell growth factor receptor Kit (Homo sapiens) (P10721 whole entry): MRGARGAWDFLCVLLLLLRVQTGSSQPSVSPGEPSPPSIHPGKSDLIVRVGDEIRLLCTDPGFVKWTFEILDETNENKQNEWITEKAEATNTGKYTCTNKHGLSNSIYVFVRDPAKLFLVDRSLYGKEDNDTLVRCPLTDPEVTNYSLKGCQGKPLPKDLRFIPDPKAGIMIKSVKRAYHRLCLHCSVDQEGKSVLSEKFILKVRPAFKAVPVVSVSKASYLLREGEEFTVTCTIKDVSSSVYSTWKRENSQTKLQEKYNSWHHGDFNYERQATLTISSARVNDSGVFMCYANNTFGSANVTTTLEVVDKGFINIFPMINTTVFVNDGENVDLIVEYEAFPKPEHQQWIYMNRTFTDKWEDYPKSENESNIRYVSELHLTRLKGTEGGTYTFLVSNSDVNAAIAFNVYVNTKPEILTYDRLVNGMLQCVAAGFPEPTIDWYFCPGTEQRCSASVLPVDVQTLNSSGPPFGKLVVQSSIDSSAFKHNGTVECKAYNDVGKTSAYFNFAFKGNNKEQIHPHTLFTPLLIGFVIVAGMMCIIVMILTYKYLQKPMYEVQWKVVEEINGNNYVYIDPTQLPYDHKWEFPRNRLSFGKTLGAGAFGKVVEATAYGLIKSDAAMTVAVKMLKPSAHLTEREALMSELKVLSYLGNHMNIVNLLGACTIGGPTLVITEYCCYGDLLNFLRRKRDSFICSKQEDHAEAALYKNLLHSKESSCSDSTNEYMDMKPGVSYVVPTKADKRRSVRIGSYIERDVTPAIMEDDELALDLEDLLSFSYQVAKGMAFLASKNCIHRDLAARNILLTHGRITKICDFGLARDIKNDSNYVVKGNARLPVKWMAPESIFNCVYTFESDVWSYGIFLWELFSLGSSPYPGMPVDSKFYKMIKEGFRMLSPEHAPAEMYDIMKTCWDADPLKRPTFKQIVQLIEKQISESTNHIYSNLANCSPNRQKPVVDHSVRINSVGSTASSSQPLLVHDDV
Sequence of Tyrosine-protein kinase Lck (Homo sapiens) (P06239 2-509 limits assumed): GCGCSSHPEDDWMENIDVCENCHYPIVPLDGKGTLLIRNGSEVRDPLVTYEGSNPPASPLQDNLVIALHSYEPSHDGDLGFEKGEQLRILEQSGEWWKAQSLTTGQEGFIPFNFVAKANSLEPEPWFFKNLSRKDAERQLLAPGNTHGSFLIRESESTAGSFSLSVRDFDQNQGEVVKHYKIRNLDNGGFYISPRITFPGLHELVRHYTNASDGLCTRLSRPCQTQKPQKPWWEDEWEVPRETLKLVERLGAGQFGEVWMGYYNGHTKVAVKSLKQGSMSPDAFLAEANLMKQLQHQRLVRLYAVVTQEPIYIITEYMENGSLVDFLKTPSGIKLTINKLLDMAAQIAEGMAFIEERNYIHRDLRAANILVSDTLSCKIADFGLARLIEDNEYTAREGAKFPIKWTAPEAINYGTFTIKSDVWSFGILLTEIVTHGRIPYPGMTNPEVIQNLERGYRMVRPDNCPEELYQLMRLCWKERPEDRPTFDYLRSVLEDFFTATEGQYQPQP
Sequence of Aurora kinase C (Homo sapiens) (Q9UQB9 whole entry): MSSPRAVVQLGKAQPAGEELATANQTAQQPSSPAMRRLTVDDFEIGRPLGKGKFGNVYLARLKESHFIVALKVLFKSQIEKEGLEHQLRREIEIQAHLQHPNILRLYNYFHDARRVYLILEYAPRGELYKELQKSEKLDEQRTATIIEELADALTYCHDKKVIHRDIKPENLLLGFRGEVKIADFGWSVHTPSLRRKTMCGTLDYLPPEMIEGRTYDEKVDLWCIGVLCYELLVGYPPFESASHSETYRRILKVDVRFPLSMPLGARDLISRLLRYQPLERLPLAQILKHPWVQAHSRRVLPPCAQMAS
Sequence of Mast/stem cell growth factor receptor Kit (Homo sapiens), P10721 [D816V] (P10721 whole entry D816V): as the sequence (P10721 whole entry) above, with D816V counted along it

Nc1c(C(=O)NCc2ccc(C(=O)NCCCC3CCCCC3)cc2)cnn1-c1ccccc1 [SR-318]
inactive: residual activity [1] 100% | residual activity [2] 100% | residual activity [3] 72% | residual activity [4] 87% | residual activity [5] 100% | residual activity [6] 100% | residual activity [7] 100% | residual activity [8] 100% | residual activity [9] 100% | residual activity [10] 100% | residual activity [11] 96% | residual activity [12] 100% | residual activity [13] 100% | inhibition [14] 26.8% | residual activity [15] 91% | residual activity [16] 82% | residual activity [17] 61% | residual activity [18] 93% | residual activity [19] 90% | residual activity [20] 100% | residual activity [21] 96% | residual activity [22] 100% | residual activity [23] 94% | residual activity [24] 100% | residual activity [25] 100% | residual activity [26] 100% | residual activity [27] 98% | residual activity [28] 100% | residual activity [29] 100% | residual activity [30] 70% | residual activity [31] 100% | residual activity [32] 99% | residual activity [33] 100% | residual activity [34] 100% | residual activity [35] 100% | residual activity [36] 100% | residual activity [37] 100% | residual activity [38] 79% | residual activity [39] 100% | residual activity [40] 100% | residual activity [41] 100% | residual activity [42] 100% | residual activity [43] 81% | residual activity [44] 97% | residual activity [45] 100%

O=C(NCCCC1CCCCC1)c1ccc(CNC(=O)c2cnn(-c3ccccc3)c2C(F)(F)F)cc1 [SR-321]
inactive: residual activity [1] 92% | residual activity [2] 100% | residual activity [3] 95% | residual activity [4] 100% | residual activity [5] 88% | residual activity [6] 100% | residual activity [7] 100% | residual activity [8] 100% | residual activity [9] 100% | residual activity [10] 99% | residual activity [11] 97% | residual activity [12] 100% | residual activity [13] 99% | inhibition [14] -0.05% | residual activity [15] 68% | residual activity [16] 100% | residual activity [17] 92% | residual activity [18] 90% | residual activity [19] 96% | residual activity [20] 100% | residual activity [21] 95% | residual activity [22] 100% | residual activity [23] 96% | residual activity [24] 100% | residual activity [25] 78% | residual activity [26] 100% | residual activity [27] 100% | residual activity [28] 100% | residual activity [29] 100% | residual activity [30] 100% | residual activity [31] 100% | residual activity [32] 100% | residual activity [33] 100% | residual activity [34] 100% | residual activity [35] 100% | residual activity [36] 100% | residual activity [37] 100% | residual activity [38] 79% | residual activity [39] 100% | residual activity [40] 100% | residual activity [41] 100% | residual activity [42] 92% | residual activity [43] 93% | residual activity [44] 100% | residual activity [45] 100%
